Article PMC7053747 (PLoS ONE, 2020)
Where two headings read alike, the source gives them in different places.

Columns and labels:
[1] = target: delta opioid receptor (Homo sapiens, UniProt P41143); test: biochemical; type: binding
[2] = target: T1, serotonin 5HT1A receptor (Homo sapiens, UniProt P08908); test: biochemical; type: binding
T1 sequence (P08908 1-422): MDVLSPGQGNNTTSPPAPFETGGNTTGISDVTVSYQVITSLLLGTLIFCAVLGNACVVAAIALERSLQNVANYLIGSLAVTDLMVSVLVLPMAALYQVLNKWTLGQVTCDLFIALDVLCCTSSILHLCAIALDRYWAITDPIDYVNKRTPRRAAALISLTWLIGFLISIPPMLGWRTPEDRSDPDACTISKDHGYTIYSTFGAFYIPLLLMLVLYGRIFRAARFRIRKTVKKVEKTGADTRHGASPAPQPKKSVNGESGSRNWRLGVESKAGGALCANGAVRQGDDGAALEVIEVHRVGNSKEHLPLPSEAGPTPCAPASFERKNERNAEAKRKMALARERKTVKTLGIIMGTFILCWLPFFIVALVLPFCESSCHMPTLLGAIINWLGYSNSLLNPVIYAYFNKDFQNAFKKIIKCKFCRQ

[3] = target: kappa opioid receptor (Homo sapiens, UniProt P41145); test: biochemical; type: binding
[4] = target: T2, adrenergic alpha2C receptor (Homo sapiens, UniProt P18825); test: biochemical; type: binding
T2 sequence (P18825 1-462): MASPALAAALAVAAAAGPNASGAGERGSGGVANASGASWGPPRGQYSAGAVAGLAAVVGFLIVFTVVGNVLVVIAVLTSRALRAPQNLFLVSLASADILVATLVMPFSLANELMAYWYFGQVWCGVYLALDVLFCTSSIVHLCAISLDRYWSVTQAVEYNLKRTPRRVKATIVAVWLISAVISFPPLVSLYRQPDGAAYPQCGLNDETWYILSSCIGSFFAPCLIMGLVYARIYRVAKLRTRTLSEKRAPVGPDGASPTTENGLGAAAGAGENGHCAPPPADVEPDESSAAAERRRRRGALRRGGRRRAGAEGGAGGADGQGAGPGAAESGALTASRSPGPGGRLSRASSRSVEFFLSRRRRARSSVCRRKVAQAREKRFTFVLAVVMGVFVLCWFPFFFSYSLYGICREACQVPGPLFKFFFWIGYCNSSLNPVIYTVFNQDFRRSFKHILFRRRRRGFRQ

[5] = target: T3, adrenergic alpha2A receptor (Homo sapiens, UniProt P08913); test: biochemical; type: binding
T3 sequence (P08913 1-465): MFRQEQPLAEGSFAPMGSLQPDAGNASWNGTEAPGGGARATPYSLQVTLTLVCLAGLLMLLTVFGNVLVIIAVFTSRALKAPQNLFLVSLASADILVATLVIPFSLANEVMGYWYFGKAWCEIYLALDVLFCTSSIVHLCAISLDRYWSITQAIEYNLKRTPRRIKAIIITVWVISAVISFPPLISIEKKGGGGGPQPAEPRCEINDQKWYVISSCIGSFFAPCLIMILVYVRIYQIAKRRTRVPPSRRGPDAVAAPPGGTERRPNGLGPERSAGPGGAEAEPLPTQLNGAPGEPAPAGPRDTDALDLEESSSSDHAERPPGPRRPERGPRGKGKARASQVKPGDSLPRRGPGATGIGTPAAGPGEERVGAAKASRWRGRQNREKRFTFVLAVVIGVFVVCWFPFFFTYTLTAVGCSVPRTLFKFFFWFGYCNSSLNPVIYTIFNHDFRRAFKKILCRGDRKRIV

[6] = target: T4, serotonin 5HT2A receptor (Homo sapiens, UniProt P28223); test: biochemical; type: binding
T4 construct: host or cells: transient HEKT cells (ATCC CRL-11268)

[7] = target: T5, adrenergic alpha2B receptor (Homo sapiens, UniProt P18089); test: biochemical; type: binding
T5 construct: host or cells: transient HEKT cells
T5 sequence (P18089 1-450): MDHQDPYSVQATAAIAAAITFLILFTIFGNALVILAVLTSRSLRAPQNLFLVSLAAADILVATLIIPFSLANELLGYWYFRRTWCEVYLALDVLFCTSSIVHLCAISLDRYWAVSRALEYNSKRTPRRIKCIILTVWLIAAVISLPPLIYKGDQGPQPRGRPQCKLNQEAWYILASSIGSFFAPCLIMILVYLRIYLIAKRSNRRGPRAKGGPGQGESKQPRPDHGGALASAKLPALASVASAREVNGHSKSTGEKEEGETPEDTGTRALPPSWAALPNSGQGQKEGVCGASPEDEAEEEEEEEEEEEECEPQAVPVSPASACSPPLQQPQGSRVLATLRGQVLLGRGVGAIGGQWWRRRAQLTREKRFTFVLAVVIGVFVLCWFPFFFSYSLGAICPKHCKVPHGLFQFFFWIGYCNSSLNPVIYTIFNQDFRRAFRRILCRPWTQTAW

[8] = target: mu opioid receptor (Homo sapiens, UniProt P35372); test: biochemical; type: binding
[9] = tested on: rodent mu opioid receptors; conditions: cited from earlier work
[10] = target: rodent delta opioid receptor; conditions: read-out: binding affinity; cited from earlier work
[11] = target: human mu opioid receptor; conditions: read-out: binding affinity; cited from earlier work
[12] = tested on: human mu opioid receptor; conditions: cited from earlier work
[13] = target: human kappa opioid receptor; conditions: read-out: binding affinity; cited from earlier work
[14] = target: rodent kappa opioid receptor; conditions: read-out: binding affinity; cited from earlier work
[15] = target: human delta opioid receptor; conditions: read-out: binding affinity; cited from earlier work
[16] = target: rodent mu opioid receptor; conditions: read-out: binding affinity; cited from earlier work
[17] = target: mouse opioid receptor; conditions: read-out: binding affinity; cited from earlier work
[18] = target: mu opioid receptor; conditions: cited from earlier work

Sequence of kappa opioid receptor (P41145 whole entry): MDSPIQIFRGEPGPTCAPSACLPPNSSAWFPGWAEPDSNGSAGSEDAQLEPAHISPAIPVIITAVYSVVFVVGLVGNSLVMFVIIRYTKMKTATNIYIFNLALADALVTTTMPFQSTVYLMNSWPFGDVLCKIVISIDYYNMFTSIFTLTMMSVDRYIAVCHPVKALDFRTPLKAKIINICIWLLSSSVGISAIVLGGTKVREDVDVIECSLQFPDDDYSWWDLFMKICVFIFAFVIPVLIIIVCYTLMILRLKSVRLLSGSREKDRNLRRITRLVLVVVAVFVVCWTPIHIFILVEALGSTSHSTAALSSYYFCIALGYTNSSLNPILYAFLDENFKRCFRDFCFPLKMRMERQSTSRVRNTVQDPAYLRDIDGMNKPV
Sequence of mu opioid receptor (Homo sapiens, UniProt P35372) (P35372 whole entry): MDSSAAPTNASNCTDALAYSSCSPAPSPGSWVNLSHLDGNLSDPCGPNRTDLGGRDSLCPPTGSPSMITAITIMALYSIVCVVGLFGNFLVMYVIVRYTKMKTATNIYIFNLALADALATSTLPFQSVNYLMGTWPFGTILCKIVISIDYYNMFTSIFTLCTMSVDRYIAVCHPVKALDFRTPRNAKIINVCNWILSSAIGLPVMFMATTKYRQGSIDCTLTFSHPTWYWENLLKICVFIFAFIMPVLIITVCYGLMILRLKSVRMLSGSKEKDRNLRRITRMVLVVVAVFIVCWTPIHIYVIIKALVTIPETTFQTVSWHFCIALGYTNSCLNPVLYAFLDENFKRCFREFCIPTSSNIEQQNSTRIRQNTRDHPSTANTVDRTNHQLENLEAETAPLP
Sequence of delta opioid receptor (P41143 whole entry): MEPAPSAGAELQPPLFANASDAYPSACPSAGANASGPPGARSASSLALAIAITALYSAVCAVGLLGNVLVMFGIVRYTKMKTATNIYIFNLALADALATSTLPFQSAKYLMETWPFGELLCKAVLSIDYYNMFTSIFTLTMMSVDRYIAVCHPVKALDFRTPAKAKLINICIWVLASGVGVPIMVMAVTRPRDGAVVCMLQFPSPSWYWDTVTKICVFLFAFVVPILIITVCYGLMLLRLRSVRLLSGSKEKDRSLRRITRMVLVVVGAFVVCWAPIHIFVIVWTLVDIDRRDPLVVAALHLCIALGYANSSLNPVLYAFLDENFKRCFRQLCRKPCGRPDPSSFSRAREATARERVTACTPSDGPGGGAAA
T4 sequence (P28223 whole entry): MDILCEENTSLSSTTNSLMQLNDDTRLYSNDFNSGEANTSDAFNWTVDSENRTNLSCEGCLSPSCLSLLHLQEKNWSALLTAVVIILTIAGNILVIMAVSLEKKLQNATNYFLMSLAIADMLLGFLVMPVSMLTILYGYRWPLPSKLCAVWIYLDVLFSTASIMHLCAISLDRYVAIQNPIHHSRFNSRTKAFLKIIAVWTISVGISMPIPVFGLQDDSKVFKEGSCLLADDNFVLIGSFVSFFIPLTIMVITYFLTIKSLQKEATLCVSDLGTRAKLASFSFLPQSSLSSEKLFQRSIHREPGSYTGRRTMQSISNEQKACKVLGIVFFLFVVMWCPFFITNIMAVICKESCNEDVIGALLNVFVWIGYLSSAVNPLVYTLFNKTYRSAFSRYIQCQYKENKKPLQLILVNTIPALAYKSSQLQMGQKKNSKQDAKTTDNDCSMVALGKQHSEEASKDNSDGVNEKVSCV

Molecule	Ki [8]	Ki [1]	Ki [2]	Ki [3]	Ki [4]	Ki [5]	Ki [6]	Ki [7]	other results
CC[C@@H]1CN2CC[C@@]3(O)C(=Nc4cccc(OC)c43)[C@@H]2C[C@@H]1/C(=C\OC)C(=O)OC [Compound 7, 7-Hydroxymitragynine]									Ki ([1]; read-out: Ki): 0.47 µM; Ki ([2]; read-out: Ki): > 10 µM; Ki ([3]; read-out: Ki): 0.32 µM; Ki ([4]; read-out: Ki): > 10 µM; Ki ([5]; read-out: Ki): > 10000 nM; Ki ([6]; read-out: Ki): > 10 µM; Ki ([7]; read-out: Ki): > 10 µM
COC(=O)C1=CO[C@@H](C)C2CN3CCc4c([nH]c5ccccc45)[C@@H]3C[C@H]12 (some centres unmarked) [Compound 11, Ajmalicine]	8.96 µM	> 10 µM	0.42 µM	> 10 µM	0.065 µM	45 nM	> 10 µM		
C=C[C@H]1CN2CC[C@@]3(C(=O)Nc4ccccc43)[C@@H]2C[C@@H]1/C(=C\OC)C(=O)OC [Compound 21, Isocorynoxeine]	> 10 µM	> 10 µM	> 10 µM	> 10 µM	> 10 µM	> 10000 nM	> 10 µM	> 10 µM	
C=C[C@H]1CN2CCc3c([nH]c4cccc(OC)c34)[C@@H]2C[C@@H]1/C(=C\OC)C(=O)OC [Compound 5, Paynantheine]									functional activity (BRET) [9]: no agonist or antagonist activity; Ki [10]: 4.3 ± 0.7 µM; Ki [11]: 410 ± 200 nM; functional activity (BRET) [12]: antagonist; Ki [13]: 2600 ± 400 nM; Ki [14]: 890 ± 300 nM; Ki [15]: > 10 µM; Ki [16]: 670 ± 80 nM
CC[C@@H]1CN2CC[C@]3(C(=O)Nc4ccccc43)[C@@H]2C[C@@H]1/C(=C\OC)C(=O)OC [Compound 14, Corynoxine B]	1.6 µM	7.6 µM	> 10 µM	> 10 µM	> 10 µM	> 10000 nM	> 10 µM	> 10 µM	
COC(=O)C1=CO[C@@H](C)[C@@H]2CN3CCc4c([nH]c5ccccc45)[C@@H]3C[C@H]12 [Compound 12, Tetrahydroalstonine]	> 10 µM	> 10 µM	0.38 µM	> 10 µM	0.053 µM	18 nM	2.6 µM	0.04 µM	
C=C[C@H]1CN2CC[C@]3(C(=O)Nc4ccccc43)[C@@H]2C[C@@H]1/C(=C\OC)C(=O)OC [Compound 20, Corynoxeine]	> 10 µM	> 10 µM	> 10 µM	> 10 µM	> 10 µM	> 10000 nM	> 10 µM	8.4 µM	
CC[C@H]1CN2CCc3c([nH]c4cccc(OC)c34)[C@@H]2C[C@@H]1/C(=C\OC)C(=O)OC [Compound 2, Speciogynine]									Ki ([1]; read-out: Ki): > 10 µM; Ki ([2]; read-out: Ki): 0.54 µM; Ki [17]: < 10 µM; Ki ([3]; read-out: Ki): 3.6 µM; Ki ([4]; read-out: Ki): 0.68 µM; Ki ([5]; read-out: Ki): 360 nM; Ki ([6]; read-out: Ki): 2.9 µM; Ki ([7]; read-out: Ki): 2.6 µM
CCOC(=O)C1(c2ccccc2)CCN(CCC(C#N)(c2ccccc2)c2ccccc2)CC1 [diphenoxylate]									Ki [18]: 12.4 nM
CCC(=O)O[C@](Cc1ccccc1)(c1ccccc1)[C@H](C)CN(C)C [propoxyphene]									Ki [18]: 120 nM
Mitragynine [Compound 1]									functional activity (BRET) [9]: competitive antagonist; Ki ([1]; read-out: Ki): 6.5 µM; Ki ([2]; read-out: Ki): 5.8 µM; functional activity (BRET) [12]: partial agonist; Ki ([3]; read-out: Ki): 1.3 µM; Ki ([4]; read-out: Ki): 3.5 µM; Ki ([5]; read-out: Ki): 2300 nM; Ki ([6]; read-out: Ki): 7.3 µM; Ki ([7]; read-out: Ki): 4.9 µM
CC[C@H]1CN2CC[C@@]3(C(=O)Nc4ccccc43)[C@@H]2C[C@@H]1/C(=C\OC)C(=O)OC [Compound 16, Isorhynchophylline]		6.4 µM	> 10 µM	> 10 µM	> 10 µM	4800 nM	> 10 µM	> 10 µM	
